From the NIST ThermoML archive (doi:10.1021/je800940j)
Numbers after ± are expanded uncertainties.

Legend:
[1] = xn = mol fraction of the nth substance listed; conditions: Liquid; for viscosity: Concentric cylinders viscometry
[2] = 101 kPa, Liquid

Cc1ccccc1 [toluene] + C1CCCCC1
[1], 101 kPa, x2 = 0
Conditions	mass density [kg/m3]	viscosity [mPa·s]
283.15 K	876.1 ± 0.63	0.6657 ± 0.0084
293.15 K	866.75 ± 0.65	0.5958 ± 0.008
303.15 K	857.48 ± 0.67	0.5368 ± 0.0076
313.15 K	848.08 ± 0.68	0.4859 ± 0.0074
323.15 K	838.7 ± 0.7	0.4408 ± 0.0071

C1CC[C@H]2CCCC[C@H]2C1 [cis-decahydronaphthalene] + C1CC[C@H]2CCCC[C@@H]2C1
[1], 101.3 kPa, x1 = 0.4106
Conditions	mass density [kg/m3]	viscosity [mPa·s]
283.15 K	887.8 ± 0.47	3.097 ± 0.023
293.15 K	880.25 ± 0.48	2.504 ± 0.019
303.15 K	872.7 ± 0.5	2.066 ± 0.016
313.15 K	865.15 ± 0.52	1.734 ± 0.014
323.15 K	857.65 ± 0.53	1.477 ± 0.013

Cc1ccccc1 [toluene]
[2]
Conditions	mass density [kg/m3]
283.15 K	876.1 ± 0.63
293.15 K	866.75 ± 0.65
303.15 K	857.48 ± 0.67
313.15 K	848.08 ± 0.68
323.15 K	838.7 ± 0.7

[2], Automatic viscometer
Conditions	viscosity [mPa·s]
283.15 K	0.6657 ± 0.0033
293.15 K	0.5958 ± 0.003
303.15 K	0.5368 ± 0.0027
313.15 K	0.4859 ± 0.0024
323.15 K	0.4408 ± 0.0022

C1CCCCC1 [cyclohexane]
[2]
Conditions	mass density [kg/m3]
283.15 K	787.95 ± 0.81
293.15 K	778.7 ± 0.83
303.15 K	769.2 ± 0.84
313.15 K	759.65 ± 0.86
323.15 K	749.9 ± 0.88

[2], Concentric cylinders viscometry
Conditions	viscosity [mPa·s]
283.15 K	1.18 ± 0.011
293.15 K	0.9847 ± 0.01
303.15 K	0.8295 ± 0.0093
313.15 K	0.7061 ± 0.0086
323.15 K	0.5978 ± 0.008
